# Results: ChEMBL document CHEMBL4842346, “Improving the metabolic stability of antifungal compounds based on a scaffold hopping strategy: Design, synthesis, and structure-activity relationship studies of dihydrooxazole derivatives” (Eur J Med Chem, 2021)
# Experiments:
# [1] = molecular target: T1, Lanosterol 14-alpha demethylase (Candida albicans (strain SC5314 / ATCC MYA-2876) (Yeast), UniProt P10613); test: Inhibition of Candida albicans CYP51 assessed as 14alpha-methylergosta-8,24(28)-dien3beta-6alpha-diol level at 0.015 ug/ml measured after 18 hrs by GC-MS analysis relative to control; parameters: scale not given: the % may be the effect or the level left; settings: at 0.015 µg/mL
# [2] = molecular target: T1, Lanosterol 14-alpha demethylase; test: Inhibition of Candida albicans CYP51 assessed as ergosterol level at 0.015 ug/ml measured after 18 hrs by GC-MS analysis relative to control; parameters: scale not given: the % may be the effect or the level left; settings: at 0.015 µg/mL
# [3] = molecular target: T1, Lanosterol 14-alpha demethylase; test: Inhibition of Candida albicans CYP51 assessed as lanosterol level at 0.015 ug/ml measured after 18 hrs by GC-MS analysis relative to control; parameters: scale not given: the % may be the effect or the level left; settings: at 0.015 µg/mL
# [4] = molecular target: Cytochrome P450 2D6 (Homo sapiens, UniProt P10635); test: Inhibition of CYP2D6 in human liver microsome incubated for 10 mins in the presence of NADPH by LC-MS/MS analysis; assay type: ADME, microsomes
# [5] = Metabolic stability in human plasma assessed as parent compound remaining at 100 uM measured after 60 mins by LC-MS/MS analysis; assay type: ADME, cell-free; settings: read-out: Stabilty
# [6] = Metabolic stability in human liver microsomes assessed as half life at 100 uM in the presence of NADPH measured upto 60 mins by LC-MS/MS analysis; assay type: ADME, Microsome
# [7] = Metabolic stability in human liver microsomes assessed as compound remaining at 100 uM measured after 60 mins in the presence of NADPH by LC-MS/MS analysis; assay type: ADME, Microsome; settings: read-out: Stabilty
# [8] = Metabolic stability in human liver microsomes assessed as compound remaining at 100 uM measured after 60 mins in the absence of NADPH by LC-MS/MS analysis; assay type: ADME, Microsome; settings: read-out: Stabilty
# [9] = Metabolic stability in human plasma assessed as half life at 100 uM measured after 60 mins by LC-MS/MS analysis; assay type: ADME, cell-free
# [10] = Intrinsic hepatic clearance in human liver microsomes at 100 uM in the presence of NADPH measured up to 60 mins by LC-MS/MS analysis; assay type: ADME, Microsome; settings: 1 h
# [11] = test system: Candida albicans; test: Antifungal activity against fluconazole and itraconazole resistant Candida albicans 17# assessed as inhibition of fungal growth by NCCLS protocol based method; assay type: functional
# [12] = Metabolic stability in human plasma assessed as parent compound remaining at 100 uM measured after 120 mins by LC-MS/MS analysis; assay type: ADME, cell-free; settings: 2 h
# [13] = test system: Candida albicans; test: Antifungal activity against fluconazole resistant Candida albicans CaR assessed as inhibition of fungal growth by NCCLS protocol based method; assay type: functional
# [14] = Intrinsic microsomal clearance in human liver microsomes at 100 uM in the presence of NADPH measured up to 60 mins by LC-MS/MS analysis; assay type: ADME, Microsome; settings: read-out: CLH
# [15] = molecular target: Cytochrome P450 2C19 (Homo sapiens, UniProt P33261); test: Inhibition of CYP2C19 in human liver microsome incubated for 10 mins in the presence of NADPH by LC-MS/MS analysis; assay type: ADME, microsomes
# [16] = test system: Candida albicans; test: Antifungal activity against Candida albicans GIM2.194 assessed as inhibition of fungal growth by NCCLS protocol based method; assay type: functional
# [17] = molecular target: T1, Lanosterol 14-alpha demethylase; test: Inhibition of Candida albicans CYP51 assessed as unknown sterol level at 0.015 ug/ml measured after 18 hrs by GC-MS analysis relative to control; parameters: scale not given: the % may be the effect or the level left; settings: at 0.015 µg/mL
# [18] = molecular target: T1, Lanosterol 14-alpha demethylase; test: Inhibition of Candida albicans CYP51 assessed as eburicol level at 0.015 ug/ml measured after 18 hrs by GC-MS analysis relative to control; parameters: scale not given: the % may be the effect or the level left; settings: at 0.015 µg/mL
# [19] = molecular target: Cytochrome P450 2C9 (Homo sapiens, UniProt P11712); test: Inhibition of CYP2C9 in human liver microsome incubated for 10 mins in the presence of NADPH by LC-MS/MS analysis; assay type: ADME, microsomes
# [20] = molecular target: T2, Cytochrome P450 1A2 (Homo sapiens, UniProt P05177); test: Inhibition of CYP1A2 in human liver microsome incubated for 10 mins in the presence of NADPH by LC-MS/MS analysis; assay type: ADME, microsomes
# T2 sequence (P05177 whole entry): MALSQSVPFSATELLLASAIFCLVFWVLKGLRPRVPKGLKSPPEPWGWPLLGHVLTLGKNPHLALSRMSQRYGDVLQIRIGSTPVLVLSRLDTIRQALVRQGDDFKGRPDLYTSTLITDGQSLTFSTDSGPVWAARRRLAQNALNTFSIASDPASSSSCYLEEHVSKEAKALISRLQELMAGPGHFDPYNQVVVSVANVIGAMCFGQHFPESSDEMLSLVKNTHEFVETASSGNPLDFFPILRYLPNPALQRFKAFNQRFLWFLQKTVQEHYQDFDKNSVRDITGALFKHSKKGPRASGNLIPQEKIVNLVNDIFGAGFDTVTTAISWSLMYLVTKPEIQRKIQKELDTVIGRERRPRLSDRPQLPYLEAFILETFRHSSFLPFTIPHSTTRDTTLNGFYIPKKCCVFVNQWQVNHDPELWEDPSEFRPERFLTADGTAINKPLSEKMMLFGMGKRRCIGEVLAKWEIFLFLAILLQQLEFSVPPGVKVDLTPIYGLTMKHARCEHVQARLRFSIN
# [21] = test system: Pichia kudriavzevii; test: Antifungal activity against Candida krusei GIM2.1 assessed as inhibition of fungal growth by NCCLS protocol based method; assay type: functional
# [22] = test system: Candida parapsilosis; test: Antifungal activity against Candida parapsilosis GIM2.190 assessed as inhibition of fungal growth by NCCLS protocol based method; assay type: functional; settings: Lodderomyces parapsilosis
# [23] = test system: Candida albicans; test: Antifungal activity against Candida albicans SC5314 assessed as inhibition of fungal growth by NCCLS protocol based method; assay type: functional
# [24] = test system: Candida tropicalis; test: Antifungal activity against Candida tropicalis GIM2.183 assessed as inhibition of fungal growth by NCCLS protocol based method; assay type: functional
# [25] = molecular target: Cytochrome P450 3A4 (Homo sapiens, UniProt P08684); test: Inhibition of CYP3A4 in human liver microsome incubated for 10 mins in the presence of NADPH by LC-MS/MS analysis; assay type: ADME, microsomes
# [26] = test system: Aspergillus fumigatus; test: Antifungal activity against Aspergillus fumigatus CGMCC3.7795 assessed as inhibition of fungal growth by NCCLS protocol based method; assay type: functional
# [27] = test system: Cryptococcus neoformans; test: Antifungal activity against Cryptococcus neoformans GIM2.209 assessed as inhibition of fungal growth by NCCLS protocol based method; assay type: functional
# [28] = molecular target: T1, Lanosterol 14-alpha demethylase; test: Inhibition of Candida albicans CYP51 assessed as 14alpha-methylergosta-8,24(28)-dien3beta-6alpha-diol level at 0.25 ug/ml measured after 18 hrs by GC-MS analysis relative to control; parameters: scale not given: the % may be the effect or the level left; settings: at 0.25 µg/mL
# [29] = molecular target: T1, Lanosterol 14-alpha demethylase; test: Inhibition of Candida albicans CYP51 assessed as ergosterol level at 0.25 ug/ml measured after 18 hrs by GC-MS analysis relative to control; parameters: scale not given: the % may be the effect or the level left; settings: at 0.25 µg/mL
# [30] = test system: Candida albicans; test: Antifungal activity against Candida albicans CPCC400523 assessed as inhibition of fungal growth by NCCLS protocol based method; assay type: functional
# [31] = molecular target: T1, Lanosterol 14-alpha demethylase; test: Inhibition of Candida albicans CYP51 assessed as lanosterol level at 0.25 ug/ml measured after 18 hrs by GC-MS analysis relative to control; parameters: scale not given: the % may be the effect or the level left; settings: at 0.25 µg/mL
# [32] = test system: Cryptococcus neoformans; test: Antifungal activity against Cryptococcus neoformans CGMCC2.3161 assessed as inhibition of fungal growth by NCCLS protocol based method; assay type: functional
# [33] = molecular target: T1, Lanosterol 14-alpha demethylase; test: Inhibition of Candida albicans CYP51 assessed as eburicol level at 0.25 ug/ml measured after 18 hrs by GC-MS analysis relative to control; parameters: scale not given: the % may be the effect or the level left; settings: at 0.25 µg/mL
# [34] = molecular target: T1, Lanosterol 14-alpha demethylase; test: Inhibition of Candida albicans CYP51 assessed as unknown sterol level at 0.25 ug/ml measured after 18 hrs by GC-MS analysis relative to control; parameters: scale not given: the % may be the effect or the level left; settings: at 0.25 µg/mL
# [35] = AUC (0-infinity) in Sprague-Dawley rat at 2 mg/kg, iv measured after 24 hrs by LC-MS/MS analysis; assay type: ADME, organism-based; parameters: route intravenous, dose 2 mg/kg, time 24 hrs; settings: in vivo
# [36] = Clearance in Sprague-Dawley rat at 2 mg/kg, iv measured after 24 hrs by LC-MS/MS analysis; assay type: ADME, organism-based; settings: in vivo
# [37] = Tmax in Sprague-Dawley rat at 10 mg/kg, po measured up to 24 hrs by LC-MS/MS analysis; assay type: ADME, organism-based; settings: in vivo
# [38] = Cmax in Sprague-Dawley rat at 10 mg/kg, po measured up to 24 hrs by LC-MS/MS analysis; assay type: ADME, organism-based; parameters: route oral, dose 10 mg/kg, time <=24; settings: in vivo
# [39] = AUClast in Sprague-Dawley rat at 2 mg/kg, iv measured after 24 hrs by LC-MS/MS analysis; assay type: ADME, organism-based; parameters: route intravenous, dose 2 mg/kg, time 24 hrs; settings: in vivo
# [40] = AUClast in Sprague-Dawley rat at 10 mg/kg, po measured after 24 hrs by LC-MS/MS analysis; assay type: ADME, organism-based; parameters: route oral, time 24 hrs, dose 10 mg/kg; settings: in vivo
# [41] = Half life in Sprague-Dawley rat at 2 mg/kg, iv measured up to 24 hrs by LC-MS/MS analysis; assay type: ADME, organism-based; settings: in vivo
# [42] = Initial plasma concentration in Sprague-Dawley rat at 2 mg/kg, iv by LC-MS/MS analysis; assay type: ADME, organism-based
# [43] = Volume of distribution at steady state in Sprague-Dawley rat at 2 mg/kg, iv measured after 24 hrs by LC-MS/MS analysis; assay type: ADME, organism-based; settings: in vivo, read-out: Vdss
# [44] = Oral bioavailability in Sprague-Dawley rat at 10 mg/kg measured after 24 hrs by LC-MS/MS analysis; assay type: ADME, organism-based; settings: in vivo
# T1 sequence (P10613 whole entry): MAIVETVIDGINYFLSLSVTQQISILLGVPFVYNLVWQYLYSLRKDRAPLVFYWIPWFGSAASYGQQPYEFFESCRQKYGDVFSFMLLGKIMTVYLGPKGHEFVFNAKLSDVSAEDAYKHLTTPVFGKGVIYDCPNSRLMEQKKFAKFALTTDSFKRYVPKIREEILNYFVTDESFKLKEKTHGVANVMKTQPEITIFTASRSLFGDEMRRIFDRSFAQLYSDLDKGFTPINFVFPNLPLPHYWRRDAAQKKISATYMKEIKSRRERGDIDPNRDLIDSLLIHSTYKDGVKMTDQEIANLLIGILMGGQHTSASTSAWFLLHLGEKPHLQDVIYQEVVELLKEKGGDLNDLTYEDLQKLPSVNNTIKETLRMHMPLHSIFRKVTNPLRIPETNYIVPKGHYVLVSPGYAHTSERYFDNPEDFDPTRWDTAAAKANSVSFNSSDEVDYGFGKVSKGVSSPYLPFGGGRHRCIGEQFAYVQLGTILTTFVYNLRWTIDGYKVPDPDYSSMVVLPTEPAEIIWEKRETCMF
# Sequence of Cytochrome P450 2C9 (P11712 whole entry): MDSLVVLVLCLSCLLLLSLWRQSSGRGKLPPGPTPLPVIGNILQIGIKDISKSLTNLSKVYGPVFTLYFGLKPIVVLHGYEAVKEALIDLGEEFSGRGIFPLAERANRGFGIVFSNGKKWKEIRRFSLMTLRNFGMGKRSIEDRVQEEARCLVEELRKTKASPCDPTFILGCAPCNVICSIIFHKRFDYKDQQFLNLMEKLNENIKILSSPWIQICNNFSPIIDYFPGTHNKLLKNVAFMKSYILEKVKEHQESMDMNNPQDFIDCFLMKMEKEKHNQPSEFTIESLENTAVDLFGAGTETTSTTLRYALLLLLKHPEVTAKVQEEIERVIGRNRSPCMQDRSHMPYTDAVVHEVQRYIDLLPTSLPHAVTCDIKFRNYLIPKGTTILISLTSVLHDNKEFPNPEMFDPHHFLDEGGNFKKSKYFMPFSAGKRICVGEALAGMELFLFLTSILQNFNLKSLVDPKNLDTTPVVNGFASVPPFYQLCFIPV
# Sequence of Cytochrome P450 2C19 (P33261 whole entry): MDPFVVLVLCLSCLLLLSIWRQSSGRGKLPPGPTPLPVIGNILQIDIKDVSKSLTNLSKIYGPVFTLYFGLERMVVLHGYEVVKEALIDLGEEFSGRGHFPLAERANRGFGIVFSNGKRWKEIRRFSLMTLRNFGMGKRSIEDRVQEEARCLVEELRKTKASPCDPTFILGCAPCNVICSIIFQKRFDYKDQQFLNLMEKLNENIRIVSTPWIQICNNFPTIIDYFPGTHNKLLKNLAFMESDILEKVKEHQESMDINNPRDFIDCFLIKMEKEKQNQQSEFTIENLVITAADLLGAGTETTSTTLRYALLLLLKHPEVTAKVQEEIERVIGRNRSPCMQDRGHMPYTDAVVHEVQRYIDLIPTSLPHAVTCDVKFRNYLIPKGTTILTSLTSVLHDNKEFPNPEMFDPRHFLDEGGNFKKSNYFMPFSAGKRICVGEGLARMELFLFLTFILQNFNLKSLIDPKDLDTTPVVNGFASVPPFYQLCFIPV
# Sequence of Cytochrome P450 2D6 (P10635 whole entry): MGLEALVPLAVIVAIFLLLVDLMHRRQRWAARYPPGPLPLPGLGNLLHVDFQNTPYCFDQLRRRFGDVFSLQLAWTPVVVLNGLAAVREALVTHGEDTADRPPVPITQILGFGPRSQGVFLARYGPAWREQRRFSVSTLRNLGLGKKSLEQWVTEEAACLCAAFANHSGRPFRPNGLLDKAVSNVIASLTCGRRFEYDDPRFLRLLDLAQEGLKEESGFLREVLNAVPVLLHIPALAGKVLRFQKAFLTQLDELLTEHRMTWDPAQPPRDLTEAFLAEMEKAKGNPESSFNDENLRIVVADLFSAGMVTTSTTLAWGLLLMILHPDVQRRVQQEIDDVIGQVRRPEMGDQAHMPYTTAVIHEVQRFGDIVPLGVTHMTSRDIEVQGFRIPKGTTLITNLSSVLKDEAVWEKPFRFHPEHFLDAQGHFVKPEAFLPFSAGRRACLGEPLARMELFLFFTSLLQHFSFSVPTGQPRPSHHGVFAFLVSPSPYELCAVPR
# Sequence of Cytochrome P450 3A4 (P08684 whole entry): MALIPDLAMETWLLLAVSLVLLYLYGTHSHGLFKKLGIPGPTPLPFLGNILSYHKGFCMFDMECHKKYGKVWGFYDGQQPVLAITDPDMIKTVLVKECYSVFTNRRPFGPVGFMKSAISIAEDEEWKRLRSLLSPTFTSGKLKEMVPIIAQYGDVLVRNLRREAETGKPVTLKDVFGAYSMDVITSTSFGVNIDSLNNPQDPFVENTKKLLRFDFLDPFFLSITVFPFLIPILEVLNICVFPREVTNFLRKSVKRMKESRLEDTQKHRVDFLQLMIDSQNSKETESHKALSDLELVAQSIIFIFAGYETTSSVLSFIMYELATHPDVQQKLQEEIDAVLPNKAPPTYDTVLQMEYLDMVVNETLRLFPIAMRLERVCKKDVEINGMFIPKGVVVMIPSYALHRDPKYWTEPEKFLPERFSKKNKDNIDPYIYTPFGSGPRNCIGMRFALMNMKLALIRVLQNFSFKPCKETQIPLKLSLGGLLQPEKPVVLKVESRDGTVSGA
SMILES,Activity [1] [%],Activity [2] [%],Activity [3] [%],IC50 [4] [µM],"remaining at 1 h, 100 µM [5] [%]",half-life at 100 µM [6] [h],"remaining at 1 h, 100 µM [7] [%]","remaining at 1 h, 100 µM [8] [%]",half-life at 100 µM [9] [h],MIC [11] [µg/mL],Stabilty [12] [%],MIC [13] [µg/mL],microsomal CLint at 100 µM [14] [µL/min/mg],IC50 [15] [µM],MIC [16] [µg/mL],MIC [21] [µg/mL],MIC [22] [µg/mL],MIC [23] [µg/mL],MIC [24] [µg/mL],MIC [26] [µg/mL],other results
Fc1ccc(C2(Cn3cncn3)COC(c3ccc(-c4cccc(F)c4)cc3)=N2)cc1 (configuration not stated),34.14,35.8,18.96,40.1,98.7,0.985,47.1,79.9,> 4.8,> 64,115.8,0.5,23.5,1.3,< 0.03,0.25,8,< 0.03,0.06,> 64,CLH [10]: 0.0211 mL/min/kg; Activity [17]: 1.73%; Activity [18]: 7.04%; IC50 [19]: 3.8 µM; IC50 [20]: 21.2 µM; IC50 [25]: 15.2 µM
OC(Cn1cncn1)(Cn1cncn1)c1ccc(F)cc1F [FLUCONAZOLE],–,–,–,–,–,–,–,–,–,> 64,–,> 64,–,–,1,8,2,0.5,1,> 64,MIC [27]: 4 µg/mL; Activity [28]: 30.66%; Activity [29]: 34.27%; MIC [30]: 1 µg/mL; Activity [31]: 15.13%; MIC [32]: 4 µg/mL; Activity [33]: 7.57%; Activity [34]: 1.91%
Fc1ccc(C2(Cn3cncn3)COC(c3ccc(-c4ccccc4F)cc3)=N2)cc1 (configuration not stated),32.74,38.82,18.89,> 50,95.3,> 2.42,75.4,89.6,> 4.8,> 64,120.4,0.25,< 9.6,1.56,< 0.03,0.25,8,< 0.03,0.06,> 64,AUC(0-inf) [35]: 3130 ng·h/mL; clearance [36]: 10.8 mL/min/kg; Activity [17]: 1.97%; Activity [18]: 5.08%; IC50 [19]: 2.3 µM; IC50 [20]: 6.64 µM; Tmax [37]: 5.33 h; Cmax [38]: 754 ng/mL; AUC(0-t) at 24 h [39]: 2690 ng·h/mL; AUC(0-t) at 24 h [40]: 10400 ng·h/mL; half-life [41]: 9.35 h; IC50 [25]: 14.8 µM; C0 [42]: 758 ng/mL; Vd [43]: 7.18 L/kg; bioavailability [44]: 77.7%
